# “Also recorded” adds a separate entry of the source.
# Tests used:
# [1] = tested on: BM-derived human CD34+ cells; test: Senescence markers (p16, SA-β-Gal) in BM-derived cells of the human graft; format: in vivo, NSG mice
# IL8, CXCL10, p21, p16 = test: Gene expression in BM-derived HSPCs (qPCR); format: cell-based, human; conditions: HS/AAV6 ± Anakinra
# Description: For gene expression analyses, total RNA was extracted using either miRNeasy Micro Kit (QIAGEN) according to the manufacturer's instructions and DNase treatment was performed using RNase-free DNase Set (QIAGEN). cDNA was synthetized with iScript cDNA Synthesis Kit (Bio-Rad). cDNA was then pre-amplified using TaqMan PreAmp Master Mix (ThermoFisher) and used for q-PCR in a Viia7 Real-time PCR thermal cycler using both Fast SYBR Green Master Mix (Thermofisher), after standard curve method optimization to reach the 100% primer efficiency for each couple of primers listed in 1. The relative expression of each target gene was first normalized to GUSB housekeeping genes expression and then represented as 2^-DCt for each sample or as fold changes (2^-DDCt) relative to the indicated control conditions.
# CB-derived HSPCs = test: Whole transcriptomic analysis with GSEA; format: cell-based, human; conditions: CB HSPCs edited in presence of Anakinra vs not treated, 24 and 96 h
# Description: Whole transcriptomic analysis was performed on a pool of HSPCs derived from five CB donors. All conditions were performed in triplicate. […] RNA was quantified with The Qubit 2.0 Fluorometer (ThermoFisher) and its quality was assessed by a 2100 Agilent Bioanalyser (Agilent Technologies). Minimum quality was defined as RNA integrity number (RIN) >8,300 ng of total RNA were used for library preparation with TruSeq Stranded Total RNA with Ribo-Zero Gold kit (Illumina) and sequenced on a NextSeq 500 (Illumina). Read quality was determined using FastQC and low-quality sequences were trimmed using Trimmomatic. RNA-seq data were aligned to the human reference genome (GRCh38/hg38) using both HISAT2 and STAR with standard input parameters. Gene counts were produced using Subread featureCounts against Genecode v26 or v31, considering results produced by both the aligners. After visual inspection of results, we continued the analysis using alignments achieved using HISAT, which provided more conservative alignments. […] Differential expression was determined considering only protein coding genes and correcting p-values using FDR.
substance,measurement,setting,value
Anakinra: recombinant and slightly modified form of the Human interleukin-1 receptor antagonist (IL-1Ra); SEQ ID NO: 3,"Percentage of senescent cells (p16, SA-β-Gal) in BM-derived CD34+ / HDR-edited cells of the human graft","[1]; NSG mice, endpoint 15-18 weeks, inhibitor at time of ex vivo GE",decrease
same,Senescence burden (p16+) in the human graft,"[1]; mPB HSPCs, BM-derived HSPC",reduction in the senescence burden in the human graft; also recorded: dampened GE-related senescence establishment
same,"Relative expression of pro-inflammatory cytokines (IL8, CXCL10) in BM-derived edited CD34+ cells","IL8, CXCL10, p21, p16",decrease in pro-inflammatory cytokines expression
same,"GSEA normalized enrichment scores for inflammatory/TNFα dependent pathways, interferon responses, senescence categories",CB-derived HSPCs,negative and significantly high normalized enrichment scores (NES); also recorded: downregulated early and late upon Anakinra treatment
